Where “and” joins values, the source holds several entries; their conditions need not be identical. Identical values can stand only once. Inconclusive results and toxic doses are left out. The calls were made as follows: active = survival T/C of 150% or more; inactive = T/C below 125% in these data.
Tested on: P388 leukemia ip, CD2F1 mice, survival T/C
Experiment: NCI In Vivo Anticancer Drug Screen. Data for tumor model P388 Leukemia (intraperitoneal) in CD2F1 (CDF1) mice
Conditions: endpoint: median survival time, higher = longer survival
How it was run: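 Mice carrying the transplanted tumor received test compound or vehicle. Survival was recorded in each group, and the value is the treated-group measurement divided by that of the vehicle-treated control group.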

[1] = dose: 100.0 mg/kg/injection, schedule: Q01DX001 (ip), vehicle: Klucel (hydroxypropylcellulose) (HPC)
[2] = dose: 200.0 mg/kg/injection, schedule: Q01DX001 (ip), vehicle: Klucel (hydroxypropylcellulose) (HPC)
[3] = dose: 400.0 mg/kg/injection, schedule: Q01DX001 (ip), vehicle: Klucel (hydroxypropylcellulose) (HPC)
[4] = dose: 60.0 mg/kg/injection, schedule: Q01DX005 (ip), vehicle: saline with Tween-80
[5] = dose: 120.0 mg/kg/injection, schedule: Q01DX005 (ip), vehicle: saline with Tween-80
[6] = dose: 6.25 mg/kg/injection, schedule: Q01DX009 (ip), vehicle: DMSO
[7] = dose: 12.5 mg/kg/injection, schedule: Q01DX009 (ip), vehicle: DMSO
[8] = dose: 50.0 mg/kg/injection, schedule: Q01DX009 (ip), vehicle: saline with Tween-80
[9] = dose: 100.0 mg/kg/injection, schedule: Q01DX009 (ip), vehicle: saline with Tween-80
[10] = dose: 200.0 mg/kg/injection, schedule: Q01DX009 (ip), vehicle: saline with Tween-80
[11] = dose: 50.0 mg/kg/injection, schedule: Q01DX009 (ip), vehicle: Klucel (hydroxypropylcellulose) (HPC)
[12] = dose: 100.0 mg/kg/injection, schedule: Q01DX009 (ip), vehicle: Klucel (hydroxypropylcellulose) (HPC)
[13] = dose: 200.0 mg/kg/injection, schedule: Q01DX009 (ip), vehicle: Klucel (hydroxypropylcellulose) (HPC)
[14] = dose: 50.0 mg/kg/injection, schedule: Q04DX003 (ip), vehicle: Klucel (hydroxypropylcellulose) (HPC)
[15] = dose: 100.0 mg/kg/injection, schedule: Q04DX003 (ip), vehicle: Klucel (hydroxypropylcellulose) (HPC)
[16] = dose: 200.0 mg/kg/injection, schedule: Q04DX003 (ip), vehicle: Klucel (hydroxypropylcellulose) (HPC)

Measured: T/C

CC1CC(O)C(O)(c2ccccc2)CC1C (configuration not stated)
inactive: [1] 104 % of control | [2] 101 % of control | [3] 99 % of control

CC12C=CC(C(C(=O)O)C1=O)C2(C)C (configuration not stated)
inactive: dose: 100.0 mg/kg/injection, schedule: Q04DX002 (ip), vehicle: saline with Tween-80 107 % of control | dose: 200.0 mg/kg/injection, schedule: Q04DX002 (ip), vehicle: saline with Tween-80 103 % of control

COC(=O)C(=O)c1c(C2CC2)[nH]c2[nH]n(-c3ccccc3)c(=O)c2c1=O
inactive: [4] 96 % of control | [5] 91 % of control

O=c1c2cc(O)ccc2oc2c(CO)ccc(NCCN3CCCC3)c12
inactive: dose: 100.0 mg/kg/injection, schedule: Q01DX001 (ip), vehicle: saline with Tween-80 93 % of control | dose: 200.0 mg/kg/injection, schedule: Q01DX001 (ip), vehicle: saline with Tween-80 100 % of control | dose: 400.0 mg/kg/injection, schedule: Q01DX001 (ip), vehicle: saline with Tween-80 106 % of control

CCC1(c2ccccc2)CCC(C#N)C1=N (configuration not stated)
inactive: [1] 102 % of control | [2] 100 % of control | [3] 98 % of control

CC(C)C1=CC(=O)C2=C(CCC3C4=C(CCC23C)C(=O)OC4)C1=O (configuration not stated)
inactive: [6] 105 % of control | [7] 113 % of control | dose: 25.0 mg/kg/injection, schedule: Q01DX009 (ip), vehicle: DMSO 98 % of control

CC(CC(=O)c1ccccc1)=NCC(O)CN=C(C)CC(=O)c1ccccc1 (configuration not stated)
inactive: [8] 96 % of control | [9] 94 % of control | [10] 93 % of control

Cn1cc(NC(=O)c2cc(NC(=O)c3cc(NC=O)cn3C)cn2C)cc1C(=O)NCCC(=N)N
inactive: dose: 15.0 mg/kg/injection, schedule: Q01DX005 (ip), vehicle: water 100 % of control | dose: 30.0 mg/kg/injection, schedule: Q01DX005 (ip), vehicle: water 101 % of control | dose: 60.0 mg/kg/injection, schedule: Q01DX005 (ip), vehicle: water 96 % of control | dose: 120.0 mg/kg/injection, schedule: Q01DX005 (ip), vehicle: water 104 % of control

O=C(O)c1ccc(NC(=S)NC(=O)c2cccc(Br)c2)cc1
inactive: [4] 91 % of control | [5] 86 % of control

Cn1c(N)c(-n2[nH]c(=O)n(-c3ccccc3)c2=O)c(=O)n(C)c1=O
inactive: [11] 106 % of control | [12] 95 % of control | [13] 98 % of control

Cc1nnc(NC(=O)c2ccc(Cl)c(Cl)c2)s1
inactive: [11] 100 % of control | [12] 94 % of control | [13] 89 % of control

COc1ccc2nc(-c3ccccc3)cc(N=[N+]=[N-])c2c1
inactive: [4] 100 % of control | [5] 97 % of control | dose: 240.0 mg/kg/injection, schedule: Q01DX005 (ip), vehicle: saline with Tween-80 102 % of control

C1CCc2[nH]nc(-c3n[nH]c4c3CCCCC4)c2CC1
inactive: dose: 60.0 mg/kg/injection, schedule: Q01DX005 (ip), vehicle: Klucel (hydroxypropylcellulose) (HPC) 100 % of control | dose: 120.0 mg/kg/injection, schedule: Q01DX005 (ip), vehicle: Klucel (hydroxypropylcellulose) (HPC) 94 % of control | dose: 240.0 mg/kg/injection, schedule: Q01DX005 (ip), vehicle: Klucel (hydroxypropylcellulose) (HPC) 96 % of control

COc1ccc(Sc2ccccn2)cc1OC
inactive: dose: 50.0 mg/kg/injection, schedule: Q01DX005 (ip), vehicle: saline with Tween-80 101 % of control | dose: 100.0 mg/kg/injection, schedule: Q01DX005 (ip), vehicle: saline with Tween-80 106 % of control | dose: 200.0 mg/kg/injection, schedule: Q01DX005 (ip), vehicle: saline with Tween-80 114 % of control

CC1(C)CC[C@H](C2=CC(=O)c3c(O)ccc(O)c3C2=O)O1
inactive: dose: 1.25 mg/kg/injection, schedule: Q01DX009 (ip), vehicle: Klucel (hydroxypropylcellulose) (HPC) 117 % of control | dose: 2.5 mg/kg/injection, schedule: Q01DX009 (ip), vehicle: Klucel (hydroxypropylcellulose) (HPC) 115 % of control | dose: 5.0 mg/kg/injection, schedule: Q01DX009 (ip), vehicle: Klucel (hydroxypropylcellulose) (HPC) 119 % of control | dose: 10.0 mg/kg/injection, schedule: Q01DX009 (ip), vehicle: Klucel (hydroxypropylcellulose) (HPC) 118 % of control

COC(=O)C12c3ccccc3C3C(c4ccccc41)C32 (configuration not stated)
inactive: dose: 100.0 mg/kg/injection, schedule: Q04DX003 (ip), vehicle: saline 102 % of control | dose: 200.0 mg/kg/injection, schedule: Q04DX003 (ip), vehicle: saline 96 % of control

Cc1ccc2c(c1)C1(C)OC(C=CC1=O)O2 (configuration not stated)
inactive: dose: 25.0 mg/kg/injection, schedule: Q04DX003 (ip), vehicle: Klucel (hydroxypropylcellulose) (HPC) 99 % of control and 119 % of control | [14] 98 % of control | [15] 123 % of control and 97 % of control | [16] 113 % of control

CSc1ccc(NC(=O)ON2C(=O)c3ccccc3C2=O)cc1
inactive: dose: 6.25 mg/kg/injection, schedule: Q01DX009 (ip), vehicle: saline with Tween-80 119 % of control | dose: 12.5 mg/kg/injection, schedule: Q01DX009 (ip), vehicle: saline with Tween-80 110 % of control | dose: 25.0 mg/kg/injection, schedule: Q01DX009 (ip), vehicle: saline with Tween-80 112 % of control | [8] 119 % of control

O=C1CCCCCCCCCCCCCCCO1
inactive: dose: 6.25 mg/kg/injection, schedule: Q01DX009 (ip), vehicle: Klucel (hydroxypropylcellulose) (HPC) 103 % of control | dose: 12.5 mg/kg/injection, schedule: Q01DX009 (ip), vehicle: Klucel (hydroxypropylcellulose) (HPC) 98 % of control and 115 % of control | dose: 25.0 mg/kg/injection, schedule: Q01DX009 (ip), vehicle: Klucel (hydroxypropylcellulose) (HPC) 104 % of control and 97 % of control | [11] 100 % of control and 120 % of control and 91 % of control | [12] 109 % of control | [13] 111 % of control | dose: 400.0 mg/kg/injection, schedule: Q01DX009 (ip), vehicle: Klucel (hydroxypropylcellulose) (HPC) 109 % of control

CCn1c2ccccc2c2cc(N)c(N=Nc3cc(OC)c(N=Nc4ccc([N+](=O)[O-])cc4)cc3OC)cc21
inactive: [11] 104 % of control | [12] 105 % of control | [13] 112 % of control

[O-]c1n[n+](Cc2ccc(Br)cc2)no1
inactive: [14] 96 % of control | [15] 100 % of control | [16] 110 % of control

CC(C)(C)C1(c2ccccc2)C(=O)c2ccccc2C1=O
inactive: dose: 100.0 mg/kg/injection, schedule: Q04DX002 (ip), vehicle: saline 100 % of control | dose: 200.0 mg/kg/injection, schedule: Q04DX002 (ip), vehicle: saline 97 % of control | dose: 400.0 mg/kg/injection, schedule: Q04DX002 (ip), vehicle: saline 101 % of control

O=C(CBr)c1ccc(C(F)(F)F)cc1
inactive: [6] 99 % of control | [7] 88 % of control

COc1ccc(CCNC(=O)Cc2ccc(OC)c(OCc3ccccc3)c2)cc1OC
inactive: dose: 25.0 mg/kg/injection, schedule: Q01DX009 (ip), vehicle: other 95 % of control | dose: 50.0 mg/kg/injection, schedule: Q01DX009 (ip), vehicle: other 95 % of control | dose: 100.0 mg/kg/injection, schedule: Q01DX009 (ip), vehicle: other 89 % of control | dose: 200.0 mg/kg/injection, schedule: Q01DX009 (ip), vehicle: other 86 % of control | dose: 400.0 mg/kg/injection, schedule: Q01DX009 (ip), vehicle: other 89 % of control

CC(=O)OCCC/C(=C/c1cc2ccccc2c2ccccc12)[N+](=O)[O-]
inactive: [15] 104 % of control | [16] 109 % of control | dose: 400.0 mg/kg/injection, schedule: Q04DX003 (ip), vehicle: Klucel (hydroxypropylcellulose) (HPC) 109 % of control

c1ccc2c(c1)C1CCC2c2ccccc21
inactive: [9] 118 % of control | [10] 104 % of control | dose: 400.0 mg/kg/injection, schedule: Q01DX009 (ip), vehicle: saline with Tween-80 118 % of control

NC(=O)NN=C(C1CC1)C1CC1
inactive: dose: 3.12 mg/kg/injection, schedule: Q01DX005 (ip), vehicle: Klucel (hydroxypropylcellulose) (HPC) 115 % of control | dose: 6.25 mg/kg/injection, schedule: Q01DX005 (ip), vehicle: Klucel (hydroxypropylcellulose) (HPC) 98 % of control | dose: 12.5 mg/kg/injection, schedule: Q01DX005 (ip), vehicle: Klucel (hydroxypropylcellulose) (HPC) 104 % of control | dose: 50.0 mg/kg/injection, schedule: Q01DX005 (ip), vehicle: Klucel (hydroxypropylcellulose) (HPC) 99 % of control
